{"source": "patent US20150140059A1", "about": "(The Regents of the University of California, priority 2012, published 2015)", "key": {"[1]": {"system": "C3H10T1/2 embryonic fibroblast cells", "format": "cell-based, mouse", "conditions": "C3H cells, 4 days; for EC50: whole cell extracts, read-out: EC50 for inducing ALP activity", "procedure": "(§1) For direct comparison to Oxy133, C3H cells were also treated with Oxy34 and Oxy49 (FIG. 2A). After 4 days, alkaline phosphatase (ALP) activity was measured in whole cell extracts.\n(§2) Cells at confluence were treated with vehicle, Oxy133 or Oxy149. After 4 days, alkaline phosphatase (ALP) activity was measured in whole cell extracts.\n(§3) Alkaline phosphatase (ALP) activity assay on whole cell extracts (13,14), and von Kossa staining of cell monolayers for mineralization (16) were performed as previously described."}, "[2]": {"system": "M2-10B4 bone marrow stromal cells", "assay": "Alkaline phosphatase (ALP) activity assay in M2-10B4 cells", "format": "cell-based, mouse", "procedure": "as §1, §2, §3"}, "[3]": {"system": "Lewis rats", "conditions": "prior studies (ref. 15); cited from earlier work"}, "[4]": {"system": "Lewis rats", "assay": "Rat posterolateral intertransverse process spinal fusion at L4-L5", "format": "in vivo", "conditions": "for Fusion Rates, Manual Palpation / Fusion Rates, Micro-CT / Fusion Rates, X-ray: at sacrifice (8 weeks); for bilateral fusion on radiographs (animals): four weeks; for Fusion Mass Bone Volume / Fusion Mass Bone Volume to Tissue Volume / Fusion Mass Total Tissue Volume / Fusion Mass Trabecular Separation / trabecular thickness per footnote: micro-CT", "procedure": "Thirty-eight 8-week-old male Lewis rats were purchased from Charles River Laboratories (Wilmington, Mass.) and were maintained and housed at the UCLA vivarium in accordance with regulations set forth by the UCLA Office of Protection of Research Subjects. The study was performed under a protocol approved by the UCLA Animal Research Committee (ARC).\nAnimals were pre-medicated with sustained release buprenorphine thirty minutes prior to surgery and anesthetized with 2% isoflurane administered in oxygen (1 L/min). The surgical site was shaved and disinfected with Betadine and 70% ethanol. Posterolateral intertransverse process spinal fusion at L4-L5 was performed as in prior studies (21,22). The L6 vertebral body was identified using the iliac crest as a landmark. A 4-cm longitudinal midline incision was made through the skin and subcutaneous tissue over L4-L5 down to the lumbodorsal fascia. A 2-cm longitudinal paramedial incision was then made in the paraspinal muscles bilaterally to expose the transverse processes of L4-L5, which were decorticated with a high-speed burr. […] The implants were then covered with the overlying paraspinal muscles and the lumbodorsal fascia and skin were closed with 4-0 Prolene sutures (Ethicon, Inc., Somerville, N.J.). Animals were allowed to ambulate, eat, and drink ad libitum immediately after surgery.\nPosteroanterior radiographs of the lumbar spine were taken on each animal at 4, 6, and 8 weeks after surgery using a Faxitron LX60 cabinet radiography system and evaluated blindly by two independent observers employing the following standardized scale: 0, no fusion; 1, unilateral fusion; and 2, complete bilateral fusion. The scores from the observers were added together and only a score of 4 was considered as complete fusion.\nEight weeks after surgery, animals were euthanized and the spines were surgically removed and evaluated by two blinded independent observers for motion between levels. Nonunion was recorded if motion was observed between the facets or transverse processes on either side. Complete fusion was recorded if no motion was observed bilaterally. Spines were scored as either fused or not fused. Unanimous agreement was required to consider complete fusion.\nEach removed spine was analyzed by high resolution micro-computed tomography (micro-CT), using a SkyScan 1172 scanner (SkyScan, Belgium) with a voxel isotropic resolution of 20 μm and an X-ray energy of 55 kVp and […] to further assess the fusion rate and observe the fusion mass as we have previously reported (15). Three hundred and sixty projections were acquired over an angular range of 180° with steps of 0.5 with an exposure time of 220 msec/slice. Five frames were averaged at each rotation step to get better signal to noise ratio. A 0.5 mm aluminum filter was used to narrow down the X-ray beam frequency in order to minimize beam hardening artifact. Virtual image slices were reconstructed using the cone-beam reconstruction software version 2.6 based on the Feldkamp algorithm (SkyScan). These settings produced serial cross-sectional 1024×1024 pixel images. Sample re-orientation and 2D visualization were performed using DataViewer (SkyScan). 3D visualization was performed using Dolphin Imaging version 11 (Dolphin Imaging & Management Solutions, Chatsworth, Calif.). Fusion was defined as the bilateral presence of bridging bone between the L4 and L5 transverse processes. The reconstructed images were judged to be fused or not fused by two experienced independent observers. To quantify the density of bone formed within each fusion mass, the tissue volume of the mass (TV), trabecular bone volume within the mass (BV), BV/TV ratio, trabecular thickness, and trabecular separation were calculated. This was performed using DataViewer software with measurements across 501 axial slices (20 um per slice, 10.02 mm length) within each fusion mass, centered at the level of the intervertebral body of L4-5."}, "[5]": {"system": "primary human mesenchymal stem cells", "assay": "Osteogenic gene expression by quantitative RT-PCR in primary human MSC", "format": "cell-based", "conditions": "5 μM", "description": "(La Jolla, Calif.). […] Human primers sequences were: […] ID NO:1) and 3'-[NT] (SEQ ID NO:2), BSP 5'-[NT] ID NO:3) and 3'-[NT] ID NO:4), […] ID NO:5) and 3'-[NT]"}, "[6]": {"system": "8X-Gli luciferase reporter (Hedgehog pathway)", "format": "cell-based, mouse", "conditions": "C3H cells, 48 hours", "procedure": "(§4) After 4 days ALP activity, and after 7 days the expression of osteogenic genes ALP, BSP, and OSX was measured by quantitative real-time PCR (p<0.001 for control vs. Oxy133, and for Oxy133 vs. Oxy133+Cyc for ALP activity and for the expression of all genes shown). […] (p<0.001 for control vs. Oxy133 at 100 nM, 250 nM, and 1 μM Oxy133). (FIG. 4C) The amount of YFP-Smo captured by 20S beads or control beads was compared in samples containing either no competitor or 50 μM of a free competitor sterol (20S, Oxy133 or Oxy16). The YFP-Smo captured by the beads was measured by Western blot (top) and plotted (bottom) relative to the amount captured in the binding reaction with no competitor.\nCells at 70% confluence in 24-well plates were transiently transfected with Gli-dependent firefly luciferase and Renilla luciferase vectors as we have previously described (17,18). […] Luciferase activity was assessed using the Dual Luciferase Reporter Assay System (Promega Corporation, Madison, Wis.) according to manufacturer's instructions after cells were treated for 48 hours."}, "[7]": {"target": "T1, Smoothened (YFP-Smo) (Mus musculus, UniProt P56726)", "T1 construct": "expressed in transfected cells", "T1 sequence (P56726 33-793)": "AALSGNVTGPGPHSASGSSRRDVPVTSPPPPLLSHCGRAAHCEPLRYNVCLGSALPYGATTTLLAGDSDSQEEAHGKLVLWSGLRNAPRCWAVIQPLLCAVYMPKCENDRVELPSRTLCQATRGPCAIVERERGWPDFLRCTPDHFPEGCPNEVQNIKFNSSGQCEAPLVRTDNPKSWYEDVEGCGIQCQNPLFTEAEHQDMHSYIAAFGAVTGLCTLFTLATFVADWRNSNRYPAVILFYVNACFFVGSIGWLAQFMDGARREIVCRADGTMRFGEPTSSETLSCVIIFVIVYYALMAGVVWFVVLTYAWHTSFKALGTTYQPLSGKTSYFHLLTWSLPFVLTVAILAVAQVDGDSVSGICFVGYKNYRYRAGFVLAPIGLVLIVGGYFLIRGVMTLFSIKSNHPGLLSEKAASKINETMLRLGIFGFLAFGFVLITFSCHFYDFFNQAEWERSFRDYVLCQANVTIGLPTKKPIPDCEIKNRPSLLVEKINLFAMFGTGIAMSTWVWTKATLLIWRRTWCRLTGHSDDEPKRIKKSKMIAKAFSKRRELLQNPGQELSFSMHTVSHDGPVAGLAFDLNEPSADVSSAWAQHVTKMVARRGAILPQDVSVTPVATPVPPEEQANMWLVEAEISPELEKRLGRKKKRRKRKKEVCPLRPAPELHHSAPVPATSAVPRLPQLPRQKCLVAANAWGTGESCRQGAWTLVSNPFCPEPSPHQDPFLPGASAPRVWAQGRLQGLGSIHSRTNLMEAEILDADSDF", "assay": "YFP-Smo capture by 20S-beads, competition with free sterol", "format": "binding", "conditions": "50 μM free competitor sterol, Western blot, semi-quantitative", "procedure": "as §4\nWe previously reported that 20S selectively activates Hh signaling by binding to the Smo receptor (19). To determine whether Oxy133 activates Hh signaling by the same mechanism, we tested the ability of Oxy133 to compete for YFP-tagged Smo (YFP-Smo) binding with a 20S analogue coupled to magnetic beads. As we previously reported, this analogue, nat-20S-yne, contains an alkyne moiety on the iso-octyl chain, allowing for click chemistry-mediated coupling to magnetic beads (20S-beads) (19). Using these beads for sterol-binding assays, the amount of YFP-Smo remaining on the beads relative to a no-competitor sample is measured by Western blotting. […]"}}, "note": "Where two headings read alike, the source gives them in different places."}
{"smiles": "CC1=C2C[C@H]3[C@@H](CC=C4C[C@@H](O)CC[C@@]43C)[C@@H]2CC[C@]12O[C@@H]1C[C@H](C)CN[C@H]1[C@H]2C", "note": "[Cyclopamine, reference compound]", "values": [{"measurement": "inhibition of Oxy133-induced ALP activity", "setting": "[1]; 4 μM cyclopamine", "value": "completely inhibited"}, {"measurement": "inhibition of Oxy133-induced ALP activity and osteogenic marker expression", "setting": "[2]; M2 cells (data not shown)", "value": "completely inhibited"}]}
{"smiles": "CC(C)CCCC(C)(O)C1CCC2C3CC(O)C4CC(O)CCC4(C)C3CCC21C", "note": "(stereo not shown) [Oxy34]", "values": [{"measurement": "EC50", "setting": "[1]", "value": 0.8, "unit": "µM"}, {"measurement": "fusion at the 4 week time point", "setting": "[3]", "value": "no fusion was observed"}]}
{"smiles": "C=C(C)CCC[C@](C)(O)[C@H]1CC[C@H]2[C@@H]3C[C@H](O)[C@H]4C[C@@H](O)CC[C@]4(C)[C@H]3CC[C@@]21C", "note": "[Oxy49]", "values": [{"measurement": "EC50", "setting": "[1]", "value": 0.9, "unit": "µM"}, {"measurement": "fusion at the 4 week time point", "setting": "[3]", "value": "no fusion was observed"}]}
{"smiles": "CCCCCC[C@](C)(O)[C@H]1CC[C@H]2[C@@H]3C[C@H](O)[C@H]4C[C@@H](O)CC[C@]4(C)[C@H]3CC[C@@]21C", "note": "[Oxy133, (3S,5S,6S,8R,9S,10R,13S,14S,17S)-17-((S)-2-hydroxyoctan-2-yl)-10,13-dimethylhexadecahydro-1H-cyclopenta[a]phenanthrene-3,6-diol]", "values": [{"measurement": "Fusion Rates, Manual Palpation", "setting": "[4]; 0.2 mg", "value": 0, "unit": "%"}, {"measurement": "Fusion Rates, Micro-CT", "setting": "[4]; 0.2 mg", "value": 0, "unit": "%"}, {"measurement": "Fusion Rates, X-ray", "setting": "[4]; 0.2 mg", "value": 0, "unit": "%"}, {"measurement": "bilateral fusion, manual palpation (animals)", "setting": "[4]; 2 mg, 8 weeks", "value": "4/8"}, {"measurement": "bilateral fusion, micro-CT (animals)", "setting": "[4]; 2 mg, 8 weeks", "value": "4/8"}, {"measurement": "Fusion Rates, Manual Palpation", "setting": "[4]; 2 mg", "value": 50, "unit": "%"}, {"measurement": "Fusion Rates, Micro-CT", "setting": "[4]; 2 mg", "value": 50, "unit": "%"}, {"measurement": "Fusion Rates, X-ray", "setting": "[4]; 2 mg", "value": 50, "unit": "%"}, {"measurement": "fusion on radiographs (animals)", "setting": "[4]; 2 mg, eight weeks", "value": "4/8"}, {"measurement": "bilateral fusion on radiographs (animals)", "setting": "[4]; 2 mg", "value": "3/8"}, {"measurement": "Fusion Mass Bone Volume", "setting": "[4]; 2 mg, 8 weeks", "value": 21.217, "unit": "mm^3"}, {"measurement": "Fusion Mass Bone Volume to Tissue Volume", "setting": "[4]; 2 mg, 8 weeks", "value": 27.104, "unit": "%"}, {"measurement": "Fusion Mass Total Tissue Volume", "setting": "[4]; 2 mg, 8 weeks", "value": 78.586, "unit": "mm^3"}, {"measurement": "Fusion Mass Trabecular Separation", "setting": "[4]; 2 mg, 8 weeks", "value": 321.693, "unit": "μm"}, {"measurement": "trabecular thickness per footnote", "setting": "[4]; 2 mg, 8 weeks", "value": 134.008}, {"measurement": "bilateral fusion, manual assessment (animals)", "setting": "[4]; 20 mg, 8 weeks", "value": "6/7"}, {"measurement": "Fusion Rates, Manual Palpation", "setting": "[4]; 20 mg", "value": 86, "unit": "%"}, {"measurement": "Fusion Rates, Micro-CT", "setting": "[4]; 20 mg", "value": 100, "unit": "%"}, {"measurement": "Fusion Rates, X-ray", "setting": "[4]; 20 mg", "value": 100, "unit": "%"}, {"measurement": "bilateral fusion on radiographs (animals)", "setting": "[4]; 20 mg", "value": "6/7"}, {"measurement": "Fusion Mass Bone Volume", "setting": "[4]; 20 mg, 8 weeks", "value": 19.592, "unit": "mm^3"}, {"measurement": "Fusion Mass Bone Volume to Tissue Volume", "setting": "[4]; 20 mg, 8 weeks", "value": 24.565, "unit": "%"}, {"measurement": "Fusion Mass Total Tissue Volume", "setting": "[4]; 20 mg, 8 weeks", "value": 79.934, "unit": "mm^3"}, {"measurement": "Fusion Mass Trabecular Separation", "setting": "[4]; 20 mg, 8 weeks", "value": 310.912, "unit": "μm"}, {"measurement": "trabecular thickness per footnote", "setting": "[4]; 20 mg, 8 weeks", "value": 124.737}, {"measurement": "EC50", "setting": "[1]; Mus musculus, 96 h", "value": "~0.5", "unit": "µM"}, {"measurement": "EC50", "setting": "[2]; Mus musculus, M210B4, 96 h, read-out: EC50 for inducing ALP activity", "value": "~0.44", "unit": "µM"}, {"measurement": "BSP expression increase", "setting": "[5]; 2 and 4 weeks", "value": 4, "unit": "fold"}, {"measurement": "OCN expression induction", "setting": "[5]; 4 weeks", "value": 2, "unit": "fold"}, {"measurement": "OSX expression induction", "setting": "[5]; 4 weeks", "value": 3, "unit": "fold"}, {"measurement": "BSP expression increase", "setting": "[5]; one week", "value": 2, "unit": "fold"}, {"measurement": "Gli-dependent reporter activity induction", "setting": "[6]; 100 nM", "value": 5, "unit": "fold"}, {"measurement": "Gli-dependent reporter activity induction", "setting": "[6]; 1 μM", "value": 17, "unit": "fold"}]}
{"smiles": "CC(C)CCC[C@](C)(O)[C@H]1CC[C@H]2[C@@H]3CC=C4C[C@@H](O)CC[C@]4(C)[C@H]3CC[C@@]21C", "note": "[Oxy 20S, 20(S)-hydroxycholesterol]", "values": [{"measurement": "amount of YFP-Smo captured on 20S-coupled beads", "setting": "[7]", "value": "reduced the amount of YFP-Smo captured"}]}
